# Laboratory results taken from patent US20190194209A1, “PYRAZOLE CARBOXAMIDE COMPOUNDS AND METHODS OF USE” (Genentech, Inc., priority 2014, published 2019).
# Like-named read-outs stand apart in the source and are kept apart here.
# Key:
# [1] = tested on: CD69 production by B lymphocytes in human whole blood activated with goat F(ab')2 anti-human IgM; assay: CD69 Whole Blood Assay (Example 907); assay type: cell-based; conditions: Lymphocyte, read-out: CD69 Hu Blood FACS (IC70)
# Text: A CD69 Whole Blood Assay can be conducted on Formula I compounds to determine the ability of compounds to inhibit the production of CD69 by B lymphocytes in human whole blood activated by crosslinking surface IgM with goat F(ab′)2 anti-human IgM (Example 907). CD69 is a type II C-type lectin involved in lymphocyte migration and cytokine secretion. CD69 expression represents one of the earliest available indicators of leukocyte activation and its rapid induction occurs through transcriptional activation (Vazquez et al (2009) Jour. of Immunology Published Oct. 19, 2009, doi: 10.4049/jimmunol.0900839). Concentration-dependent inhibition of antigen receptor stimulation by selective Btk inhibitors induces cell surface expression of the lymphocyte activation marker CD69 (Honigberg et al (2010) Proc. Natl. Acad. Sci. 107(29):13075-13080). Thus, CD69 inhibition by selective Btk inhibitors may be correlated with therapeutic efficacy of certain B-cell disorders.
# Human blood is obtained from healthy volunteers, with the following restrictions: 1 week drug-free, non-smokers. Blood (approximately 20 mls to test 8 compounds) is collected by venipuncture into Vacutainer® (Becton, Dickinson and Co.) tubes with sodium heparin.
# Solutions of Formula I compounds at 10 mM in DMSO are diluted 1:10 in 100% DMSO, then are diluted by three-fold serial dilutions in 100% DMSO for a ten point dose-response curve. The compounds are further diluted 1:10 in PBS and then an aliquot of 5.5 μl of each compound is added in duplicate to a 2 ml 96-well plate; 5.5 μl of 10% DMSO in PBS is added as control and no-stimulus wells. Human whole blood—HWB (100 μl) is added to each well. After mixing the plates are incubated at 37° C., 5% CO2, 100% humidity for 30 minutes. Goat F(ab′)2 anti-human IgM (10 μl of a 500 μg/ml solution, 50 μg/ml final) is added to each well (except the no-stimulus wells) with mixing and the plates are incubated for an additional 20 hours. At the end of the 20 hour incubation, samples are incubated with fluorescent labeled antibodies for 30 minutes, at 37° C., 5% CO2, 100% humidity. Include induced control, unstained and single stains for compensation adjustments and initial voltage settings. Samples are then lysed with PharM Lyse™ (BD Biosciences Pharmingen) according to the manufacturer's instructions. Samples are then transferred to a 96 well plate suitable to be run on the BD Biosciences HTS 96 well system on the LSRII machine. Data acquired and Mean Fluorescence Intensity values were obtained using BD Biosciences DIVA Software. Results are initially analyzed by FACS analysis software (Flow Jo).
# [2] = target: T1, full length human wildtype Btk (Homo sapiens, UniProt Q06187); assay: Biochemical Btk Kinase Assay (Example 901); conditions: read-out: BTK LC3K (Ki)
# T1 construct: V5 (C); 6xHis (C); made in house; host or cells: Sf9 cells (baculovirus, pFastBac)
# Procedure: Formula I compounds were tested by a standard biochemical Btk, Kinase Assay (Example 901). A generalized procedure for a standard biochemical Btk, Kinase Assay that can be used to test Formula I compounds is as follows. A master mix minus Btk enzyme is prepared containing 1× Cell Signaling kinase buffer (25 mM Tris-HCl, pH 7.5, 5 mM beta-glycerophosphate, 2 mM dithiothreitol, 0.1 mM Na3VO4, 10 mM MgCl2), 0.5 μM Promega PTK Biotinylated peptide substrate 2, and 0.01% BSA. A master mix plus Btk enzyme is prepared containing 1× Cell Signaling kinase buffer, 0.5 μM (micromolar) PTK Biotinylated peptide substrate 2, 0.01% BSA, and 100 ng/well (0.06 mU/well) Btk enzyme. Btk enzyme is prepared as follows: full length human wildtype Btk (accession number NM-000061) with a C-terminal V5 and 6×His tag was subcloned into pFastBac® vector (Invitrogen/Life Technologies) for making baculovirus carrying this epitope-tagged Btk. Generation of baculovirus is done based on Invitrogen's instructions detailed in its published protocol “Bac-to-Bac Baculovirus Expression Systems” (Invitrogen/Life Technologies, Cat. Nos. 10359-016 and 10608-016). Passage 3 virus is used to infect Sf9 cells to overexpress the recombinant Btk protein. The Btk protein is then purified to homogeneity using Ni-NTA column. The purity of the final protein preparation is greater than 95% based on the sensitive Sypro-Ruby staining. A solution of 200 μM ATP is prepared in water and adjusted to pH 7.4 with 1N NaOH. A quantity of 1.25 μL (microliter) of compounds in 5% DMSO is transferred to a 96-well 2 area Costar polystyrene plate. Compounds are tested singly and with an 11-point dose-responsive curve (starting concentration is 10 μM; 1:2 dilution). A quantity of 18.75 μL of master mix minus enzyme (as a negative control) and master mix plus enzyme is transferred to appropriate wells in 96-well 2 area costar polystyrene plate. 5 μL of 200 μM ATP is added to that mixture in the 96-well 2 area Costar polystyrene plate for final ATP concentration of 40 μM. The reaction is allowed to incubate for 1 hour at room temperature. The reaction is stopped with Perkin Elmer 1× detection buffer containing 30 mM EDTA, 20 nM SA-APC, and 1 nM PT66 Ab. The plate is read using time-resolved fluorescence with a Perkin Elmer Envision using excitation filter 330 nm, emission filter 665 nm, and 2nd emission filter 615 nm. IC50 values are subsequently calculated. Alternatively, the Lanthascreen assay can be used to evaluate Btk activity through quantification of its phosphorylated peptide product. The FRET (Fluorescence Resonance Energy Transfer) that occurs between the fluorescein on the peptide product and the terbium on the detection antibody decreases with the addition of inhibitors of Btk that reduce the phosphorylation of the peptide. In a final reaction volume of 25 μL (microliters), Btk (h) (0.1 ng/25 μl reaction) is incubated with 50 mM Hepes pH 7.5, 10 mM MgCl2, 2 mM MnCl2, 2 mM DTT, 0.2 mM NaVO4, 0.01% BSA, and 0.4 uM fluorescein poly-GAT. The reaction is initiated by the addition of ATP to 25 μM (micromolar) the Km of ATP. After incubation for 60 minutes at room temperature, the reaction is stopped by the addition of a final concentration of 2 nM Tb-PY20 detection antibody in 60 mM EDTA for 30 minutes at room temperature. Detection is determined on a Perkin Elmer Envision with 340 nm excitation and emission at 495 nm and 520 nm. Exemplary Btk inhibition […] values are in Table 1.
# [3] = human whole blood, anti-IgM stimulated, 20 hour incubation, CD20 positive cells, FACS
# T1 sequence (Q06187 whole entry): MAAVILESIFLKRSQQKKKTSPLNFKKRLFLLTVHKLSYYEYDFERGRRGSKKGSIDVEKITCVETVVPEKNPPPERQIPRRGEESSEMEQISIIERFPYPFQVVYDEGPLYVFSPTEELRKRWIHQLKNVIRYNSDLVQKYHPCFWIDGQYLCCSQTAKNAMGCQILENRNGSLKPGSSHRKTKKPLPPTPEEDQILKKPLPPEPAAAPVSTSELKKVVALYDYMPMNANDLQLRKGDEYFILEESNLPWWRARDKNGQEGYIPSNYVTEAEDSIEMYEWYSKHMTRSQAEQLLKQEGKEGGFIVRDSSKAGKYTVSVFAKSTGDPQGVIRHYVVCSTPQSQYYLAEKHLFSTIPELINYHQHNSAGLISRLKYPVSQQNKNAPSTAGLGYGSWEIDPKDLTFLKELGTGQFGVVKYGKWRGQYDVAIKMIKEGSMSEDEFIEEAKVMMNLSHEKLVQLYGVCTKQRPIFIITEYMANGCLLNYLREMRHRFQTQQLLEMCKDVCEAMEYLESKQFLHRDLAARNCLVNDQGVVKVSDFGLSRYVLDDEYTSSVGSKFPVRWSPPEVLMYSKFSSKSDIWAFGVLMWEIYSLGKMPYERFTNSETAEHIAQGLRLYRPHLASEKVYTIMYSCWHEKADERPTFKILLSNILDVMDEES
Compound,"IC70 [1, 3]",Ki [2],"IC70 ([1]; Homo sapiens, 20 h)"
"C[C@H]1CN(C2COC2)CCN1c1ccc(Nc2nn(-c3cc(F)cc(N4CCn5c(cc6c5CC(C)(C)C6)C4=O)c3CO)cc2C(N)=O)nc1 [Example 145, 1-[3-(7,7-dimethyl-4-oxo-1,2,6,8-tetrahydrocyclopenta[3,4]pyrrolo[3,5-b]pyrazin-3-yl)-5-fluoro-2-(hydroxymethyl)phenyl]-3-[[5-[(2S)-2-methyl-4-(oxetan-3-yl)piperazin-1-yl]-2-pyridyl]amino]pyrazole-4-carboxamide]",30.4 nM,0.103 nM,–
"CC1(C)Cc2cc3n(c2C1)CCN(c1nccc(-n2cc(NC(=O)C4CC4)c(C(N)=O)n2)c1CO)C3=O [Example 109, 4-(cyclopropanecarbonylamino)-1-[2-(7,7-dimethyl-4-oxo-1,2,6,8-tetrahydrocyclopenta[3,4]pyrrolo[3,5-b]pyrazin-3-yl)-3-(hydroxymethyl)-4-pyridyl]pyrazole-3-carboxamide]",47.4 nM,0.924 nM,–
"CC1(C)Cc2cc3n(c2C1)CCN(c1nccc(-n2nc(C(N)=O)c4cccnc42)c1CO)C3=O [Example 110, 1-[2-(7,7-dimethyl-4-oxo-1,2,6,8-tetrahydrocyclopenta[3,4]pyrrolo[3,5-b]pyrazin-3-yl)-3-(hydroxymethyl)-4-pyridyl]pyrazolo[3,4-b]pyridine-3-carboxamide]",5300 nM,3.32 nM,–
"CC1(C)Cc2cc3n(c2C1)CCN(c1cccc(-n2cc(C(N)=O)c(Nc4ccccn4)n2)c1CO)C3=O [Example 102, 1-[3-(7,7-dimethyl-4-oxo-1,2,6,8-tetrahydrocyclopenta[3,4]pyrrolo[3,5-b]pyrazin-3-yl)-2-(hydroxymethyl)phenyl]-3-(2-pyridylamino)pyrazole-4-carboxamide]",166 nM,1.01 nM,–
"CC1(C)Cc2cc3n(c2C1)CCN(c1nccc(-n2cc(C(N)=O)c(NC(=O)C4CC4)n2)c1CO)C3=O [Example 107, 3-(cyclopropanecarbonylamino)-1-[2-(7,7-dimethyl-4-oxo-1,2,6,8-tetrahydrocyclopenta[3,4]pyrrolo[3,5-b]pyrazin-3-yl)-3-(hydroxymethyl)-4-pyridyl]pyrazole-4-carboxamide]",52.1 nM,0.615 nM,–
"CCC(=O)Nc1nn(-c2ccnc(N3CCn4c(cc5c4CC(C)(C)C5)C3=O)c2CO)cc1C(N)=O [Example 123, 1-[2-(7,7-dimethyl-4-oxo-1,2,6,8-tetrahydrocyclopenta[3,4]pyrrolo[3,5-b]pyrazin-3-yl)-3-(hydroxymethyl)-4-pyridyl]-3-(propanoylamino)pyrazole-4-carboxamide]",685 nM,32.1 nM,–
"CC1(C)Cc2cc3n(c2C1)CCN(c1nccc(-n2cc(C(N)=O)c(NC(=O)[C@@H]4C[C@@H]4F)n2)c1CO)C3=O [Example 112, 1-[2-(7,7-dimethyl-4-oxo-1,2,6,8-tetrahydrocyclopenta[3,4]pyrrolo[3,5-b]pyrazin-3-yl)-3-(hydroxymethyl)-4-pyridyl]-3-[(2-fluorocyclopropanecarbonyl)amino]pyrazole-4-carboxamide]",100 nM,0.436 nM,–
"C[C@H]1CN(C2COC2)CCN1c1ccc(Nc2nn(-c3ccnc(-n4ncc5cc(C(C)(C)C)cc(F)c5c4=O)c3CO)cc2C(N)=O)nc1 [Example 120, 1-[2-(6-tert-butyl-8-fluoro-1-oxo-phthalazin-2-yl)-3-(hydroxymethyl)-4-pyridyl]-3-[[5-[(2S)-2-methyl-4-(oxetan-3-yl)piperazin-1-yl]-2-pyridyl]amino]pyrazole-4-carboxamide]",98.6 nM,0.106 nM,–
"C[C@H]1CN(C2COC2)CCN1c1ccc(Nc2cn(-c3ccnc(N4CCn5c(cc6c5CC(C)(C)C6)C4=O)c3CO)nc2C(N)=O)nc1 [Example 126, 1-[2-(7,7-dimethyl-4-oxo-1,2,6,8-tetrahydrocyclopenta[3,4]pyrrolo[3,5-b]pyrazin-3-yl)-3-(hydroxymethyl)-4-pyridyl]-4-[[5-[(2S)-2-methyl-4-(oxetan-3-yl)piperazin-1-yl]-2-pyridyl]amino]pyrazole-3-carboxamide]",6.4 nM,0.156 nM,–
"CC1(C)Cc2cc3n(c2C1)CCN(c1nccc(-n2cc(C(N)=O)c(N)n2)c1CO)C3=O [Example 117, 3-amino-1-[2-(7,7-dimethyl-4-oxo-1,2,6,8-tetrahydrocyclopenta[3,4]pyrrolo[3,5-b]pyrazin-3-yl)-3-(hydroxymethyl)-4-pyridyl]pyrazole-4-carboxamide]",–,2.45 nM,494 nM
